{
  "source": "patent US7923004B2",
  "about": "(priority 2006, dated 2011)",
  "key": {"[1]": {"assay": "Cell Titer-Glo Cell Viability Assay, genotype 1b cells", "type": "cell-based", "settings": "human, Huh-Luc-Neo (HCV genotype 1b replicon) cells, HCV genotype 1b assays, read-out: Cytotoxicity* (CC50)", "summary_of_the_method": "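Huh-Luc-Neo (genotype 1b) or En5-3/Htat2ANeo (genotype 1a) cells, 5000-7000/well in phenol red-free DMEM, treated with 8-9 compound concentrations for 72 h at 37° C, 5% CO2. Viability read by CellTiter-Glo luminescence after 5 min shaking at room temperature.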"}, "[2]": {"test_system": "Compound #64 resistant HCV 1b replicon cell lines vs wild type Huh-Luc-Neo replicon", "assay": "EC50 determination (HCV RNA, quantitative PCR) in resistant vs wild type replicon clones", "type": "cell-based, HCV genotype 1b", "protocol": "An HCV Replicon cell line (luc-neo/ET) and assay (Lohman et al, Science 1999, 285, 110) was used in the present invention. Specifically the HCV 1b Replicon cell line Huh-Luc-Neo was subjected to resistance selection by growth in culture in the presence of Compound #64 (Table 1) according to methods described by Mo et al., Antimicro. Agents Chemotherapy, 49, 4305-4314, 2005. Huh-Luc-Neo cells were initially subjected to selection with 0.5 μM Compound #64 (Table 1) and selection pressure was increased gradually up to 2 μM COMPOUND #64 (TABLE 1) over a period of 7 to 9 weeks and 5 cell lines derived from individual colonies were isolated and expanded. A specific clone resistant to 2 μM Compound #64 (Table 1) (Clone Comp.64-10R4) was the subjected to further selection pressure at increasing concentrations of Compound #64 (Table 1) and a replicon resistant to 10 μM Compound #64 (Table 1) was isolated (Clone Comp.64-50R4). The wild type Huh-Luc-Neo replicon cell line was cultured in parallel with the selections and characterized in a similar fashion to the resistant clones.\n(§1) EC50 determinations were performed with Compound #64 (Table 1) vs. the wild type Huh-Luc-Neo replicon cell line and the 5 resistant replicon cell lines. Resistant and wild type replicons were plated in 96 well plates (5000-7000 cells/well) and treated with compound at varying concentrations (Compound #64 (Table 1)) for 72 hours. Cells were then lysed and RNA was isolated (Qiagen RNA Easy 96 kit) according to the manufacturer's recommendations. HCV RNA levels were then measured and EC50 values were determined by cDNA synthesis and quantitative PCR using HCV specific primers and GAPDH primers as controls (Example 55, Lohman et al, Science 1999, 285, 110). The effect of the compounds on inhibition of cell viability was performed on cells treated in parallel with using the Cell Titre Glo Assay Kit (Promega) according to the manufacturer's recommendations (Example 56). CC50s for the compound vs. the wild type and resistant replicons were determined to be >50 μM."}, "[3]": {"test_system": "HCV genotype 1b replicon (Huh-Luc-Neo cells)", "assay": "HCV Replicon RNA (Taqman) Assay, genotype 1b", "type": "cell-based", "settings": "Hepatitis C virus; Huh-Luc-Neo cells, genotype 1b, HCV RNA, 72 h; read-out: HCV-1b Replicon Inhibition*, Taqman (EC50)"}, "[4]": {"assay": "Cell Titre Glo cell viability on wild type and resistant replicons", "type": "cell-based", "settings": "human", "protocol": "as §1"}, "[5]": {"test_system": "HCV Genotype 1b luc-neo/ET replicon with Y2065H mutation in NS5A", "assay": "Luciferase EC50 in Huh7-Lunet cells with luc-neo/ET/Y2065H mutant vs parental luc-neo/ET replicon", "type": "cell-based", "settings": "transient replicons, 72 h", "protocol": "Resistance of Compound #64 (Table 1) and related pyrazoles was then determined by treating Huh7-Lunet cells (Koutsoudakis et al, J. Virol. 81(2):588-98, 2007) transiently electroporated with RNAs transcribed from either the luc-neo/ET/Y2065H mutant and the parental luc-neo/ET replicons (Blight et al, J. Virol. 77(5):3181-90, 2003). Huh7-Lunet expressing the luc-neo/ET/Y2065H mutant and the parental luc-neo/ET replicons were treated with selected compounds for 72 hours. EC50 and CC50 values were determined as described in the HCV Replicon Luciferase Assay and CellTiter-Glo Cell Viability Assay protocols. […] CC50s for the compound vs. the luc-neo/ETIY2065H mutant and parental luc-neo/ET replicons were determined to be>33 μM."}, "[6]": {"test_system": "HCV genotype 1b replicon (Huh-Luc-Neo cells)", "assay": "HCV Replicon Luciferase Assay", "type": "cell-based", "settings": "Hepatitis C virus; Huh-Luc-Neo cells, genotype 1b, 72 h; read-out: HCV-1b Replicon Inhibition*, Luciferase (EC50)"}},
  "data": [
    {"compound": "Cc1ccc(O)c(-c2nn(C)cc2C#Cc2ccc(NC(=O)[C@H]3CCCCN3C(=O)C(NC(=O)OC(C)(C)C)c3ccccc3)cc2)c1", "note": "(stereo partly drawn) [64 (Table 1)]", "values": [
      {"measurement": "CC50 at 72 h", "setting": "[1]", "result": "> 100", "unit": "µM"},
      {"measurement": "EC50 shift, resistant replicon vs wild type replicon", "setting": "[2]; replicon resistant to 10 μM Compound #64, second NS5A mutation Y2065H", "result": "> 75", "unit": "fold"},
      {"measurement": "EC50 Resistant Replicon/EC50 Wild Type Replicon", "setting": "[2]; resistant clone Comp. 64-10R3, resistant conc. 2 μM", "result": 1.5},
      {"measurement": "EC50 Resistant Replicon/EC50 Wild Type Replicon", "setting": "[2]; resistant clone Comp. 64-10R4, resistant conc. 2 μM", "result": 3.48},
      {"measurement": "EC50 Resistant Replicon/EC50 Wild Type Replicon", "setting": "[2]; resistant clone Comp. 64-10R5, resistant conc. 2 μM", "result": 2.92},
      {"measurement": "EC50 Resistant Replicon/EC50 Wild Type Replicon", "setting": "[2]; resistant clone Comp. 64-10R6, resistant conc. 2 μM", "result": 2.18},
      {"measurement": "EC50 Resistant Replicon/EC50 Wild Type Replicon", "setting": "[2]; resistant clone Comp. 64-10R8, resistant conc. 2 μM", "result": 3},
      {"measurement": "EC50 Resistant Replicon/EC50 Wild Type Replicon", "setting": "[2]; resistant clone Comp. 64-50R4, resistant conc. 10 μM", "result": ">75"},
      {"measurement": "EC50", "setting": "[3]", "result": "< 1", "unit": "µM"},
      {"measurement": "CC50 at 72 h", "setting": "[4]", "result": "> 50", "unit": "µM"},
      {"measurement": "EC50 Luc-neo-ET-Y2065H/EC50 Luc-neo-ET", "setting": "[5]", "result": ">65"},
      {"measurement": "EC50", "setting": "[6]", "result": "< 1", "unit": "µM"}
    ]}
  ]
}
